PMC6426682 (ACS chemical neuroscience, 2018)

What was measured:
CB1 receptor [1] = biological target: T1, CB1 receptor (Mus musculus, UniProt P47746); test: [3H]CP55,940 saturation binding in presence of allosteric modulator; details: Bmax of the radioligand at 10 μM of test compound; vehicle 1.56 ± 0.09
CB1 receptor [2] = biological target: T1, CB1 receptor; test: [3H]CP55,940 equilibrium radioligand binding; details: for [3H]CP55,940 Curve-fit top ± S.E.: mouse cerebellar membranes
[3] = in vivo; cited from earlier work
CB1 receptor [4] = biological target: T1, CB1 receptor; test: [3H]SR141716 equilibrium radioligand binding; details: for remaining activity at 32 µM: 1.5 h, read-out: %[3H]SR141716 Binding ± S.E.; for effect on [3H]SR141716 binding (in words): 1 nM [3H]SR141716
rats = details: cited from earlier work
[5] = cited from earlier work
human CB1 receptor = human CB1 receptor (Homo sapiens, UniProt P21554); test: CB1 calcium mobilization assay; assay type: cell-based; details: for IC50: CB1 Calcium assay IC50, against EC80 (100 nM) of CP55,940 in stable human CB1-CHO-RD-HGA16 cells, mean ± SEM; for fold reduction in potency compared to 1, CB1 calcium assay: relative to 1
Sequence of human CB1 receptor (P21554 whole entry): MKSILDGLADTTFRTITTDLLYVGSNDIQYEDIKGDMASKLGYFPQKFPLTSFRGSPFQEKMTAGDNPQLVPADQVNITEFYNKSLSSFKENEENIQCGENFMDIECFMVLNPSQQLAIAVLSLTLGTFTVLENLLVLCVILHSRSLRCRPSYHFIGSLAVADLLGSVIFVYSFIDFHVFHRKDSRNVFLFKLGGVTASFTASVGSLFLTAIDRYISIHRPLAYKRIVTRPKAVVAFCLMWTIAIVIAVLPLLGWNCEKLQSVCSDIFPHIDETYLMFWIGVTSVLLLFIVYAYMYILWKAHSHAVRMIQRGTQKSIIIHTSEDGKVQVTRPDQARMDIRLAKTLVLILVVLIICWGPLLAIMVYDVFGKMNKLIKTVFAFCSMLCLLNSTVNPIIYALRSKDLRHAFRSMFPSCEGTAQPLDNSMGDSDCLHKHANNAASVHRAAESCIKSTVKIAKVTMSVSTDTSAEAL

CB1 receptor [6] = biological target: T1, CB1 receptor; test: Agonist-stimulated [35S]GTP-γ-S binding assay in mouse cerebellar membranes; assay type: biochemical
[7] = biological target: uncoupled low affinity receptor (CB1); details: read-out: Ki for the uncoupled low affinity receptor; cited from earlier work

T1 sequence (P47746 whole entry): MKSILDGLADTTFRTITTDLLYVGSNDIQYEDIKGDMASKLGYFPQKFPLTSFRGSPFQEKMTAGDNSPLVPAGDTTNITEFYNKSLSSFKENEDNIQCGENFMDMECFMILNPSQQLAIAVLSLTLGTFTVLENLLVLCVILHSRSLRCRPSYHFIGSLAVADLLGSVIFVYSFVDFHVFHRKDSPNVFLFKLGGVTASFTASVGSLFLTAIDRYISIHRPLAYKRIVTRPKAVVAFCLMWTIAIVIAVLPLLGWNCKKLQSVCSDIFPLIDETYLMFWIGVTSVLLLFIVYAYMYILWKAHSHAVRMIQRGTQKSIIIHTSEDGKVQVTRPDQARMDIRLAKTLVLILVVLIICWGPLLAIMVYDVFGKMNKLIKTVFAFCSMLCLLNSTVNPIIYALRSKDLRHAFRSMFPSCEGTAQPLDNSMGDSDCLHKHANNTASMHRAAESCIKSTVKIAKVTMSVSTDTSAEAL

Row | SMILES | [3H]CP55,940 Bmax ± S.E. (CB1 receptor [1]) | EC50 (CB1 receptor [2]) | IC50 (CB1 receptor [4]) | remaining activity at 32 µM (CB1 receptor [4]) | [3H]CP55,940 Curve-fit top ± S.E. (CB1 receptor [2]; 1 nM [3H]CP55,940) | further results
1 | O=C(Nc1ccc(Cl)cc1)Nc1cccc(-c2cccc(N3CCCC3)n2)c1 [Compound 1, 1-(4-Chlorophenyl)-3-{3-[6-(pyrrolidin-1-yl)pyridin-2-yl]phenyl}urea, reference compound] | 4.53 ± 0.29 pmol/mg | 2.04 µM | 12.3 µM | 20.4 ± 3.05% |  | [3H]CP55,940 maximum binding level (CB1 receptor [2]; 1 nM [3H]CP55,940): 256%; Emax (CB1 receptor [2]; 1.5 h, read-out: [3H]CP55,940 Curve-fit top ± S.E.): 256 ± 5.59%; food intake and body weight [3]: demonstrated efficacy in reducing food intake and body weight; prime-induced reinstatement of extinguished cocaine-seeking behavior (rats): attenuated prime-induced reinstatement of extinguished cocaine-seeking behavior in rats; tetrahydrocannabinol-induced anti-nociception [5]: attenuated tetrahydrocannabinol-induced anti-nociception
2 | O=C(Nc1ccc(Cl)cc1)Nc1cccc(-c2ccc[nH]2)c1 [Compound 13, 3‐(4‐Chlorophenyl)‐1‐[3‐(1H‐pyrrol‐2‐yl)phenyl]urea] | 5.87 ± 0.15 pmol/mg | 1.38 µM | 14.1 µM | 26.6 ± 5.68% | 458.3 ± 16.25 | [3H]CP55,940 maximum binding level (CB1 receptor [2]; 1 nM [3H]CP55,940): 458%; fold increase of [3H]CP55,940 binding level compared to 1 (CB1 receptor [2]; relative to 1): more than 2 fold; IC50 (human CB1 receptor): 0.165 to 0.169 µM; fold reduction in potency compared to 1, CB1 calcium assay (human CB1 receptor): about 3 fold
3 | O=C(Nc1ccc(Cl)cc1)Nc1cccc(-c2ccsc2)c1 [Compound 9, 3‐(4‐Chlorophenyl)‐1‐[3‐(thiophen‐3‐yl)phenyl]urea] |  | 4.57 µM | 11.2 µM | 20.4 ± 2.13% | 264.6 ± 9.81 | 
4 | Cn1cccc1-c1cccc(NC(=O)Nc2ccc(Cl)cc2)c1 [Compound 14, 3‐(4‐Chlorophenyl)‐1‐[3‐(1‐methyl‐1H‐pyrrol‐2‐yl)phenyl]urea] |  | 5.62 µM | 17.8 µM | 41.4 ± 3.26% | 164.5 ± 8.61 | IC50 (human CB1 receptor): 0.165 to 0.169 µM; fold reduction in potency compared to 1, CB1 calcium assay (human CB1 receptor): about 3 fold
5 | Cc1cc(-c2cccc(NC(=O)Nc3ccc(Cl)cc3)c2)cs1 [Compound 11, 3‐(4‐Chlorophenyl)‐1‐[3‐(5‐methylthiophen‐3‐yl)phenyl]urea] | 3.64 ± 0.17 pmol/mg | 3.89 µM | 83.2 µM | 73.2 ± 5.77% | 226.0 ± 5.82 | effect on [3H]SR141716 binding (in words) (CB1 receptor [4]): only exhibited a slight reduction in [^3H]SR141716 binding; fold reduction in inhibitory potency on introduction of a methyl group, GTP-γ-S assay (CB1 receptor [6]; relative to the 3-thiophenyl analogue (9)): 5 fold
6 | CCCCCCC(C)(C)c1ccc([C@@H]2C[C@H](O)CC[C@H]2CCCO)c(O)c1 [CP55,940] |  |  |  |  |  | Ki [7]: ~0.1 µM
7 | O=C(Nc1ccc(Cl)cc1)Nc1cccc(-c2cscn2)c1 [Compound 16, 3‐(4‐Chlorophenyl)‐1‐[3‐(1,3‐thiazol‐4‐yl)phenyl]urea] |  | 10.7 µM | 25.7 µM | 44.3 ± 1.42% | 224.2 ± 15.85 | 
8 | O=C(Nc1ccc(Cl)cc1)Nc1cccc(-c2cccs2)c1 [Compound 10, 3‐(4‐Chlorophenyl)‐1‐[3‐(thiophen‐2‐yl)phenyl]urea] |  | 5.75 µM | 28.8 µM | 45.54 ± 0.15% | 199.8 ± 8.78 | 
9 | O=C(Nc1ccc(Cl)cc1)Nc1cccc(-c2ccoc2)c1 [Compound 8, 3‐(4‐Chlorophenyl)‐1‐[3‐(furan‐3‐yl)phenyl]urea] | 3.22 ± 0.19 pmol/mg | 7.41 µM | 17.4 µM | 34.9 ± 2.43% | 174.1 ± 8.86 | fold less potent than 1 in the GTP-γ-S assay (CB1 receptor [6]; relative to 1): ~ 4 fold
10 | Cc1ccc(-c2cccc(NC(=O)Nc3ccc(Cl)cc3)c2)s1 [Compound 12, 3‐(4‐Chlorophenyl)‐1‐[3‐(5‐methylthiophen‐2‐yl)phenyl]urea] |  | 13.2 µM | 22.9 µM | 86.9 ± 5.87% | 233.3 ± 20.53 | effect on [3H]SR141716 binding (in words) (CB1 receptor [4]): only exhibited a slight reduction in [^3H]SR141716 binding
11 | O=C(Nc1ccc(Cl)cc1)Nc1cccc(-c2cncs2)c1 [Compound 17, 3‐(4‐Chlorophenyl)‐1‐[3‐(1,3‐thiazol‐5‐yl)phenyl]urea] | 3.57 ± 0.25 pmol/mg | 6.46 µM | 2.95 µM | 50.6 ± 2.04% | 181.2 ± 8.15 | 
12 | O=C(Nc1ccc(Cl)cc1)Nc1cccc(-c2ncc[nH]2)c1 [Compound 19, 3‐(4‐Chlorophenyl)‐1‐[3‐(1H‐imidazol‐2‐yl)phenyl]urea] |  | 10.2 µM | 123 µM | 34.8 ± 8.94% | 355.7 ± 27.39 | [3H]CP55,940 maximum binding level (CB1 receptor [2]; 1 nM [3H]CP55,940): 355%; fold reduction in potency compared to 1, CB1 calcium assay (human CB1 receptor): around 16 fold
13 | O=C(Nc1ccc(Cl)cc1)Nc1cccc(-c2nccs2)c1 [Compound 18, 3‐(4‐Chlorophenyl)‐1‐[3‐(1,3‐thiazol‐2‐yl)phenyl]urea] |  | 5.13 µM | 16.6 µM | 37.7 ± 0.76% | 134.2 ± 4.47 | 
14 | CC(C)(C)OC(=O)n1cccc1-c1cccc(NC(=O)Nc2ccc(Cl)cc2)c1 [Compound 15] |  | 14.8 µM | 8.51 µM | 17.2 ± 4.12% | 15.5 ± 24.12 | effect on [3H]CP55,940 binding (in words) (CB1 receptor [2]; 1 nM [3H]CP55,940): significantly decreased the binding of the radioligand; IC50 (human CB1 receptor): 3.44 ± 0.451 µM; IC50 (CB1 receptor [6]): 3.24 µM
